From US7285546B2, “Cephalotaxanes, their method of preparation and their use in treatment of cancers, leukemias, parasites including those resistant to usual chemotherapeutic agents and as reversal agents” (Stragen Pharma S.A., priority 2000, dated 2007)
Values after ≈ are worked out from the molar mass of the structure shown.

test system: K562 cell line; assay: MTT test of structural analogues of harringtonines on K562 cell line; format: cell-based; conditions: Homo sapiens, K562, 72 h
Experimental: Structural analogues of harringtonines described in this invention were tested on K562 cell line, derived from chronic myeloid leukemia cells in blastic transformation (bcr-abl positive). The cell line was purchased from ATCC (American Tissue Culture Collection) and grown in RPMI medium supplemented with 10% heat-inactivated fetal calf serum, 2 mmol/L glutamine, […] penicillin and […] streptomycin. All tested products were initially dissolved in […] (pH=2), supplemented with ultrasound treatment during 1 h. Working concentrations were made by dilution in culture medium (pH around 7). Cells in exponential growth phase were placed into 96-microwell plates in concentration 3×10^4/mL (total volume 200 μL/well) and incubated with drugs for 72 h at 37° C. in 5% CO2 humidified atmosphere. Following incubation, 2 μL of MTT solution (Sigma, St. Louis, Mo.) was added to each well. During the following 6 h of incubation at 37° C., the purple formazan product was formed by conversion of the yellow MTT salt in the mitochondria of the viable cells. The resulting precipitate was dissolved in DMSO and the amount of converted MTT was quantified in an ELISA reader (MR 5000, Dynatech). Each product was tested in triplicate (3×8 wells). Every test contained at least one plate with HHT as control, added in the same concentration as the tested products.

Compound	IC50 [µg/mL]
COC1=C[C@]23CCCN2CCc2cc4c(cc2[C@@H]3[C@@H]1O)OCO4 [CEPHALOTAXINE (CTX), cephalotaxine, reference compound]	2 (≈ 6.34 µM)
CCOC(=O)C[C@](O)(CCCC(C)(C)O)C(=O)OC1C(OC)=C[C@@]23CCCN2CCc2cc4c(cc2[C@H]13)OCO4 (stereo partly drawn) [Example 25, (2′R)-4′-ethyl-4′-demethyl-homoharringtonine]	0.041 (≈ 0.0733 µM)
COC1=C[C@]23CCCN2CCc2cc4c(cc2[C@@H]3C1OC(=O)[C@@](O)(CCCC(C)(C)O)CC(=O)OC(C)C)OCO4 (stereo partly drawn) [Example 27, (2′R)-4′-isopropyl-4′-demethyl-homoharringtonine]	0.08 (≈ 0.139 µM)
COC1=C[C@@]23CCCN2CCc2cc4c(cc2[C@@H]3C1OC(=O)[C@@](O)(CCCC(C)(C)O)CC(=O)SC)OCO4 (stereo partly drawn) [Example 30, (2′R)-4′-methylthio-4′-demethoxy-homoharringtonine]	0.05 (≈ 0.089 µM)
CCSC(=O)C[C@](O)(CCCC(C)(C)O)C(=O)OC1C(OC)=C[C@@]23CCCN2CCc2cc4c(cc2[C@H]13)OCO4 (stereo partly drawn) [Example 32, (2′R)-4′-ethylthio-4′-demethoxy-homoharringtonine]	0.08 (≈ 0.139 µM)
COC1=C[C@@]23CCCN2CCc2cc4c(cc2[C@@H]3C1OC(=O)[C@@](O)(CCCC(C)(C)O)CC(=O)SC(C)C)OCO4 (stereo partly drawn) [Example 34, (2′R)-4′-isopropylthio-4′-demethoxy-homoharringtonine]	0.05 (≈ 0.0848 µM)
COC1=C[C@@]23CCCN2CCc2cc4c(cc2[C@@H]3C1OC(=O)[C@@](O)(CCCC(C)(C)O)CC(=O)SC(C)(C)C)OCO4 (stereo partly drawn) [Example 36, (2′R)-4′-tert-butylthio-4′-demethoxy-homoharringtonine]	0.02 (≈ 0.0331 µM)
COC1=C[C@@]23CCCN2CCc2cc4c(cc2[C@@H]3C1OC(=O)[C@@](O)(CCCC(C)(C)O)CC(=O)OCC=C(C)C)OCO4 (stereo partly drawn) [Example 39, (2′R)-4′-(3-methyl-2-butenyl)-4′-demethyl-homoharringtonine]	0.028 (≈ 0.0467 µM)
C=CCOC(=O)C[C@](O)(CCCC(C)(C)O)C(=O)OC1C(OC)=C[C@@]23CCCN2CCc2cc4c(cc2[C@H]13)OCO4 (stereo partly drawn) [Example 40, (2′R)-4′-(2-propenyl)-4′-demethyl-homoharringtonine]	0.0145 (≈ 0.0254 µM)
CC#CCOC(=O)C[C@](O)(CCCC(C)(C)O)C(=O)OC1C(OC)=C[C@@]23CCCN2CCc2cc4c(cc2[C@H]13)OCO4 (stereo partly drawn) [Example 42, (2′R)-4′-(2-butynyl)-4′-demethyl-homoharringtonine]	0.0105 (≈ 0.018 µM)
COC1=C[C@@]23CCCN2CCc2cc4c(cc2[C@@H]3C1OC(=O)[C@@](O)(CCCC(C)(C)O)CC(=O)OCC(F)(F)F)OCO4 (stereo partly drawn) [Example 48, (2′R)-4′-(2,2,2-trifluoroethyl)-4′-demethyl-homoharringtonine]	0.1 (≈ 0.163 µM)
COC1=C[C@@]23CCCN2CCc2cc4c(cc2[C@@H]3C1OC(=O)[C@@](O)(CCCC(C)(C)O)CC(=O)OCC1CC1)OCO4 (stereo partly drawn) [Example 49, (2′R)-4′-cyclopropylmethyl-4′-demethyl-homoharringtonine]	0.07 (≈ 0.12 µM)
CCCCOC(=O)C[C@](O)(CCCC(C)(C)O)C(=O)OC1C(OC)=C[C@@]23CCCN2CCc2cc4c(cc2[C@H]13)OCO4 (stereo partly drawn) [Example 50, (2′R)-4′-butyl-4′-demethyl-homoharringtonine]	0.013 (≈ 0.0221 µM)
CCCOC(=O)C[C@](O)(CCCC(C)(C)O)C(=O)OC1C(OC)=C[C@@]23CCCN2CCc2cc4c(cc2[C@H]13)OCO4 (stereo partly drawn) [Example 51, (2′R)-4′-propyl-4′-demethyl-homoharringtonine]	0.0225 (≈ 0.0392 µM)
COC1=C[C@@]23CCCN2CCc2cc4c(cc2[C@@H]3C1OC(=O)[C@@](O)(CCCC(C)(C)O)CC(=O)OCC(C)C)OCO4 (stereo partly drawn) [Example 52, (2′R)-4′-isobutyl-4′-demethyl-homoharringtonine]	0.024 (≈ 0.0408 µM)
CCCCCCOC(=O)C[C@](O)(CCCC(C)(C)O)C(=O)OC1C(OC)=C[C@@]23CCCN2CCc2cc4c(cc2[C@H]13)OCO4 (stereo partly drawn) [Example 54, (2′R)-4′-hexyl-4′-demethyl-homoharringtonine]	0.005 (≈ 0.00812 µM)

Compound	IC50 [µg/mL]
CC=CCOC(=O)C[C@](O)(CCC(C)(C)O)C(=O)OC1C(OC)=C[C@@]23CCCN2CCc2cc4c(cc2[C@H]13)OCO4 (stereo partly drawn) [Example 55, (2′R)-4′-(but-2-enyl)-4′-demethyl-harringtonine]	0.014 (≈ 0.0245 µM)
CC=CCOC(=O)C[C@](O)(CCCC(C)(C)O)C(=O)OC1[C@H]2c3cc4c(cc3[C@@H]3CN5CCC[C@@]25C[C@@]1(OC)O3)OCO4 (stereo partly drawn) [Example 56, 4-(2-butenyl) (2R)-2-hydroxy-2-(4-hydroxy-4-methylpentyl)succinate of (−)-drupacine]	0.0135 (≈ 0.0224 µM)
COC(=O)C[C@](O)(CCC(C)(C)F)C(=O)OC1C(OC)=C[C@@]23CCCN2CCc2cc4c(cc2[C@H]13)OCO4 (stereo partly drawn) [Example 59, (2′R)-3″-Fluoro-3″-deoxy-harringtonine]	0.0135 (≈ 0.0253 µM)
COC(=O)C[C@](O)(CCC=C(C)C)C(=O)OC1C(OC)=C[C@@]23CCCN2CCc2cc4c(cc2[C@H]13)OCO4 (stereo partly drawn) [Example 61, 4-methyl (2R)-2-hydroxy-2-(4-methyl-pent-3-enyl)succinate of (−)-cephalotaxine]	0.0175 (≈ 0.0332 µM)
CCCCCCCOC(=O)C[C@](O)(CCCC(C)(C)O)C(=O)OC1C(OC)=C[C@@]23CCCN2CCc2cc4c(cc2[C@H]13)OCO4 (stereo partly drawn) [Example 66, (2′R)-4′-heptyl-4′-demethyl-homoharringtonine]	0.003 (≈ 0.00476 µM)
CCCCCCCCOC(=O)C[C@](O)(CCCC(C)(C)O)C(=O)OC1C(OC)=C[C@@]23CCCN2CCc2cc4c(cc2[C@H]13)OCO4 (stereo partly drawn) [Example 67, (2′R)-4′-octyl-4′-demethyl-homoharringtonine]	0.009 (≈ 0.014 µM)
CCC(C)COC(=O)C[C@](O)(CCCC(C)(C)O)C(=O)OC1C(OC)=C[C@@]23CCCN2CCc2cc4c(cc2[C@H]13)OCO4 (stereo partly drawn) [Example 69, (2′R)-4′-(methyl-2-butyl)-4′-demethyl-homoharringtonine]	0.029 (≈ 0.0482 µM)
COC1=C[C@@]23CCCN2CCc2cc4c(cc2[C@@H]3C1OC(=O)[C@@](O)(CCCC(C)(C)O)CC(=O)OCc1ccc(C)cc1)OCO4 (stereo partly drawn) [Example 72, (2′R)-4′-p-methylbenzyl-4′-demethyl-homoharringtonine]	0.006 (≈ 0.00944 µM)
COC1=C[C@@]23CCCN2CCc2cc4c(cc2[C@@H]3C1OC(=O)[C@@](O)(CCCC(C)(C)O)CC(=O)OCc1cccc(C)c1)OCO4 (stereo partly drawn) [Example 73, (2′R)-4′-m-methylbenzyl-4′-demethyl-homoharringtonine]	0.004 (≈ 0.00629 µM)
COC1=C[C@@]23CCCN2CCc2cc4c(cc2[C@@H]3C1OC(=O)[C@@](O)(CCCC(C)(C)O)CC(=O)OCCCCCO)OCO4 (stereo partly drawn) [Example 74, (2′R)-4′-(5-hydroxypentyl)-4′-demethyl-homo harringtonine]	0.024 (≈ 0.0389 µM)
COCCOC(=O)C[C@](O)(CCCC(C)(C)O)C(=O)OC1C(OC)=C[C@@]23CCCN2CCc2cc4c(cc2[C@H]13)OCO4 (stereo partly drawn) [Example 78, (2′R)-4′-(2-methoxyethoxy)-4′-demethyl-homoharringtonine]	0.012 (≈ 0.0203 µM)
COC1=C[C@@]23CCCN2CCc2cc4c(cc2[C@@H]3C1OC(=O)[C@@](O)(CCCC(C)(C)O)CC(=O)Oc1ccccc1)OCO4 (stereo partly drawn) [Example 79, (2′R)-4′-phenoxy-4′-demethylhomoharringtonine]	0.01 (≈ 0.0165 µM)
COC1=C[C@@]23CCCN2CCc2cc4c(cc2[C@@H]3C1OC(=O)[C@@](O)(CCCC(C)(C)O)CC(=O)OCCOCc1ccccc1)OCO4 (stereo partly drawn) [Example 80, (2′R)-4′-(2-benzyloxyethoxy)-4′-demethyl-homoharringtonine]	0.025 (≈ 0.0375 µM)
COC1=C[C@@]23CCCN2CCc2cc4c(cc2[C@@H]3C1OC(=O)[C@@](O)(CCCC(C)(C)O)CC(=O)OCc1cccc2ccccc12)OCO4 (stereo partly drawn) [Example 81, (2′R)-4′-(1-naphtalenemethoxy)-4′-demethyl-homoharringtonine]	0.008 (≈ 0.0119 µM)
COC1=C[C@@]23CCCN2CCc2cc4c(cc2[C@@H]3C1OC(=O)[C@@](O)(CCCC(C)(C)O)CC(=O)OCc1cccs1)OCO4 (stereo partly drawn) [Example 82, (2′R)-4′-(2-thiophenemethoxy)-4′-demethyl-homoharringtonine]	0.005 (≈ 0.00796 µM)

same assay, conditions: Homo sapiens; K562 cell line, 72 h incubation, MTT; read-out: IC50

Compound	IC50 [µg/mL]
[2H]C([2H])([2H])OC(=O)C[C@](O)(CCCC(C)(C)O)C(=O)OC1C(OC)=C[C@@]23CCCN2CCc2cc4c(cc2[C@H]13)OCO4 (stereo partly drawn) [Example 75, (2′R)-(4′-^2H3)homoharringtonine]	0.025 (≈ 0.0456 µM)
[2H]COC(=O)C[C@](O)(CCCC(C)(C)O)C(=O)OC1C(OC)=C[C@@]23CCCN2CCc2cc4c(cc2[C@H]13)OCO4 (stereo partly drawn) [Example 76, (2′R)-(4′-^2H)homoharringtonine]	0.018 (≈ 0.0329 µM)

same assay, conditions: K562 cell line, 72 h incubation, MTT

Compound	IC50 [µg/mL]
4-(hexa-2,4-dienyl) (2R)-2-hydroxy-2-(4-hydroxy-4-methylpentyl)succinate of (−)-drupacine [Example 57]	0.009
CC=CCOC(=O)C[C@](O)(CCCC(C)(C)O)C(=O)O[C@@H]1C(OC)=C[C@]23CCCN2CCc2cc4c(cc2[C@H]13)OCO4 [Example 37, (2′R)-4′-(but-2-enyl)-4′-demethyl-homoharringtonine]	0.0125 (≈ 0.0213 µM)
C=C(C)COC(=O)C[C@](O)(CCCC(C)(C)O)C(=O)O[C@@H]1C(OC)=C[C@]23CCCN2CCc2cc4c(cc2[C@H]13)OCO4 [Example 41, (2′R)-4′-(2-methyl-2-propenyl)-4′-demethyl-homoharringtonine]	0.0085 (≈ 0.0145 µM)
CC=CCCCOC(=O)C[C@](O)(CCCC(C)(C)O)C(=O)O[C@@H]1C(OC)=C[C@]23CCCN2CCc2cc4c(cc2[C@H]13)OCO4 [Example 53, (2′R)-4′-(hex-4-enyl)-4′-demethyl-homoharringtonine]	0.0085 (≈ 0.0138 µM)
